This passage reports IC50 results from patent publication US7041690B2, “Inhibitors of HCV NS5B polymerase” (Pharmacia & Upjohn Company, LLC, priority 2002, dated 2006).

Each structure is given as a SMILES string. Bounds are passed on as bounds.

Sequence of HCV NS5b RNA dependent RNA polymerase (P27958 2421-3011): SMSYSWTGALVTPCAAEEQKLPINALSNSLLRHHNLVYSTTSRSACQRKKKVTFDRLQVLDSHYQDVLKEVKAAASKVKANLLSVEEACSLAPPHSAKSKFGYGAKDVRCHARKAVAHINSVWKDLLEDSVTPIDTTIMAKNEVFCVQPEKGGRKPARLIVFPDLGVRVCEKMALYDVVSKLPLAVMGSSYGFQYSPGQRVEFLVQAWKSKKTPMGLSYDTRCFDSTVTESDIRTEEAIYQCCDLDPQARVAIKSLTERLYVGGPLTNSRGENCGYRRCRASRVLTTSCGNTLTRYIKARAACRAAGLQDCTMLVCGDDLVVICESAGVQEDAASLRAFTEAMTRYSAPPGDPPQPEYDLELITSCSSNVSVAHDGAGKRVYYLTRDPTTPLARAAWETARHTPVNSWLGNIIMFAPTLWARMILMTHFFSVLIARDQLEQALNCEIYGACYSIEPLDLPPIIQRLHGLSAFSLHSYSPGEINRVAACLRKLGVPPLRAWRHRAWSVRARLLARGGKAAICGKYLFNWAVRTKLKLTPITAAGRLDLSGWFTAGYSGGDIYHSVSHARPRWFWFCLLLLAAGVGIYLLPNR

One assay has as its target HCV NS5b RNA dependent RNA polymerase (Hepatitis C virus genotype 1a, UniProt P27958). Kind of assay: HCV NS5b RNA dependent RNA polymerase inhibition (scintillation proximity assay).
Details: not given
The class given is biochemical. How it is done: Compounds of the present invention are evaluated for inhibition of HCV NS5b RNA dependent RNA polymerase activity in assays comprised of a suitable buffer (e.g. 20 mM Tris-HCl pH 7.6), primed or unprimed RNA templates, GTP, ATP, CTP, and UTP, MnCl2 or MgCl2, and reducing agent such as 10 mM dithiothreitol or 2-mercaptoethanol. The assay buffer may contain salts such as ammonium acetate, KCl, or NaCl, and nonionic or zwitterionic detergents such as Tween or CHAPS. The incorporation of nucleotides into the complementary RNA strand may be monitored by the incorporation of radiolabeled NTP (e.g. ^3H labeled GTP). Suitable RNA templates for de novo initiation in the presence of 20–50 μM GTP or ATP are the homopolymers poly rC and poly rU, respectively. Heteropolymer RNA templates with 1–3 cytidine (C) bases or 1–3 uridine (U) bases at the 3′ terminus of the template may also be used for de novo initiation. Primed RNA templates such as poly rC primed with oligo rG or oligo dG, and poly rA primed with oligo rU may also be used to detect polymerase activity. The primers may be any length greater than 10 bases. A biotin residue may be added to the 5′ end of the template or the 5′ end of the primer to capture the template and the newly synthesized, complementary strand on avidin coated spheres. One embodiment of this technology consists of a mixture of NS5b polymerase, a poly rC RNA template primed with 5′ biotinylated oligo rG, 20 mM Tris HCl pH 7.6, 100 mM ammonium acetate, 10 mM dithiothreitol, 2 mM CHAPS, 1 mM MgCl2, and 150–200 nM ^3H labeled GTP. Test compounds (inhibitors) may be incorporated in the reaction mixture with up to 10% DMSO. The reaction is run for various times (1–180 minutes) at 22–37° C., and stopped by the addition of 10–140 mM EDTA. Scintillation Proximity Assay avidin-coated beads (Amersham Pharmacia Biotech) are added to capture the ds RNA product; or the reaction mixtures may be transferred to avidin coated Flash Plates (Perkin Elmer Life Sciences). The incorporation of radiolabeled GTP into the complementary strand is measured in 96, 384, or 1536 well plates in scintillation counters such as the Wallac Microbeta and Packard TopCount.
For the compound `Cc1ccccc1-c1ccc(/C=C(\NC(=O)c2ccccc2)C(=O)O)o1` [Compound 2], the IC50 was less than 10 µM.

The same assay, now with this note: concentration for 50% inhibition, class symbols; read-out: NS5B Inhibitory Activity.
As for `O=C(O)/C(=C/c1cccc(Oc2ccccc2Cl)c1)NC(=O)c1ccccc1` [Compound 1], the IC50 was less than 10 µM.

`Cc1ccc(COc2ccc(/C=C(\NC(=O)c3ccccc3)C(=O)O)cc2)cc1` [Compound 3]: the IC50 fell in the range of 11 to 30 µM.

Turning to `O=C(O)/C(=C/c1ccc(-c2ccc3c(c2)OCO3)o1)NC(=O)c1ccccc1` [Compound 4], the IC50 was less than 10 µM. For the compound `O=C(O)/C(=C/c1ccc(-c2cc3ccccc3s2)o1)NC(=O)c1ccccc1` [Compound 5], the IC50 is 11 to 30 µM.

Turning to `O=C(O)/C(=C/c1ccc(Nc2ccccc2Cl)cc1)NC(=O)c1ccccc1` [Compound 6], the IC50 lay within 11 to 30 µM.

Regarding `CCS(=O)(=O)c1ccc(-c2ccc(/C=C(\NC(=O)c3ccccc3)C(=O)O)o2)cc1` [Compound 7], the IC50 was more than 30 µM.

On to `O=C(O)/C(=C/c1ccc(F)c(-c2ccccc2Cl)c1)NC(=O)c1ccccc1` [Compound 8], for which the IC50 was less than 10 µM. Still for that read-out and setting: for `O=C(O)/C(=C/c1csc(-c2ccccc2Cl)n1)NC(=O)c1ccccc1` [Compound 9] the value was less than 10 µM. For the compound `O=C(O)/C(=C/c1ncc(-c2ccccc2)o1)NC(=O)c1ccccc1` [Compound 10], the IC50 was less than 10 µM. The same measure, in the same setting: for `O=C(O)/C(=C/c1cccc(-c2cccnc2)c1)NC(=O)c1ccccc1` [Compound 11] the value was more than 30 µM. Still for that read-out and setting: under `O=C(O)/C(=C/c1cnc(-c2ccccc2Cl)[nH]1)NC(=O)c1ccccc1` [Compound 12] stands more than 30 µM. On the same count and under the same terms, under `O=C(O)/C(=C/c1ccc(Oc2ccccc2Br)cc1)NC(=O)c1ccccc1` [Compound 13] stands less than 10 µM.
